# Assay results published in US20220220135A1 (BAR-ILAN UNIVERSITY, priority 2019, published 2022).
# Assays:
# NTPDase2 = biological target: T1, NTPDase2 (Homo sapiens, UniProt Q9Y5L3); assay: Inhibition of ATPase activity of human NTPDase2; format: biochemical; conditions: analogue at 100 μM; ATP 100 μM as substrate
# T1 sequence (Q9Y5L3 1-495): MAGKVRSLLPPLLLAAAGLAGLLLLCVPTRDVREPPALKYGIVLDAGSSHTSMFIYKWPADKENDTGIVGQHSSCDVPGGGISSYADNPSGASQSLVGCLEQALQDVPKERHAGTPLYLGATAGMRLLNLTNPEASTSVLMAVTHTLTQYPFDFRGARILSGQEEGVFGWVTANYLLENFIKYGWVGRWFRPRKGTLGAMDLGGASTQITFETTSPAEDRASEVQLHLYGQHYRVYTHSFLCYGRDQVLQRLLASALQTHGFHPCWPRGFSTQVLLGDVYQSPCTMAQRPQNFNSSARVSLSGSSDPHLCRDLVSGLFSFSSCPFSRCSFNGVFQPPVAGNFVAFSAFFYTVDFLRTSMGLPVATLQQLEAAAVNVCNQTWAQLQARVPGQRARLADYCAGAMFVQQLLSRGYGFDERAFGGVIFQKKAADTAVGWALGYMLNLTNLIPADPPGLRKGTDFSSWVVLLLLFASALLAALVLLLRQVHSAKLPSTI
# Procedure: (§1) FIG. 2: Inhibition of NTPDases and NPPs by analogues 9-12 using as substrates ATP (100 μM) for NTPDase1,2,3,8 and pNP-TMP (100 μM) for NPP1,3 (Panel A); and ATP (100 μM) was used as the substrate for NPP1 (Panel B);
# (§2) At least 2 independent experiments were performed. In panel A, the activity with 100 μM ATP was set as 100%, which was 287±31, 395±67, 278±22, 119±26 nmol of Pi·min−1·mg of protein−1 for human NTPDase1, -2, -3 and -8, respectively, and the activity with 100 μM pNP-TMP was set as 100% which was 67±5, 21±1 nmol of p-nitrophenol·min−1·mg of protein−1 for human NPP1 and NPP3, respectively. In panel B, the activity with 100 μM ATP was set as 100% which was 34±7 nmol of PPi·min−1·mg of protein−1 for NPP1.
# NTPDase3 = biological target: T2, NTPDase3 (Homo sapiens, UniProt O75355); assay: Inhibition of ATPase activity of human NTPDase3; format: biochemical; conditions: analogue at 100 μM; ATP 100 μM as substrate
# T2 sequence (O75355 1-529): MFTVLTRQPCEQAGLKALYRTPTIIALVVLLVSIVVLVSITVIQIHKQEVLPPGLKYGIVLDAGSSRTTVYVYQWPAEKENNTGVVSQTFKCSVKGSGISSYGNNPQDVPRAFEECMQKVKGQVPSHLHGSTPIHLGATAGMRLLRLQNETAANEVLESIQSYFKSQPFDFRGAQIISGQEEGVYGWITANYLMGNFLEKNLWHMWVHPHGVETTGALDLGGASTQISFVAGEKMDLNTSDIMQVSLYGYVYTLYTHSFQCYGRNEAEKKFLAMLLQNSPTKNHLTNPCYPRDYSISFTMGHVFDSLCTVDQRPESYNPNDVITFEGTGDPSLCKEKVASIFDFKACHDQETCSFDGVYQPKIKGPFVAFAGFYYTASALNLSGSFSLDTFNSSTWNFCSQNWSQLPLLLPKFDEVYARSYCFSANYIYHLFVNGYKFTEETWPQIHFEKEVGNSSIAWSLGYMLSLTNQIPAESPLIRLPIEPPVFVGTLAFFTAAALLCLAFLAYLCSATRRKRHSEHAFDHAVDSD
# Procedure: as §1, §2
# NTPDase8 = biological target: T3, NTPDase8 (Homo sapiens, UniProt Q5MY95); assay: Inhibition of ATPase activity of human NTPDase8; format: biochemical; conditions: analogue at 100 μM; ATP 100 μM as substrate
# T3 sequence (Q5MY95 1-495): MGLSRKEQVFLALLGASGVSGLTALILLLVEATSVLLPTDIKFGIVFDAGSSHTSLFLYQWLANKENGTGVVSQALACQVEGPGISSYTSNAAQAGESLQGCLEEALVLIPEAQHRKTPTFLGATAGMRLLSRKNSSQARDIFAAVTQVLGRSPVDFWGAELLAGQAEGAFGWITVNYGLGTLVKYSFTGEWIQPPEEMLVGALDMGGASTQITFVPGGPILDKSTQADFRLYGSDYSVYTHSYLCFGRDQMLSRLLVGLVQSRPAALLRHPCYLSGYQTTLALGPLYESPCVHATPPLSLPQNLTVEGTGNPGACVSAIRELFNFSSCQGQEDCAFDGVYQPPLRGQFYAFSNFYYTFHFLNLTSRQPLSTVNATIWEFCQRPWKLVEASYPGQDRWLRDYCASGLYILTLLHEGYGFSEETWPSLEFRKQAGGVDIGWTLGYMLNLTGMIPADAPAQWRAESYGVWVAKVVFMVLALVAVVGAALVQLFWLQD
# Procedure: as §1, §2
# P2Y6R = P2Y6R (Homo sapiens, UniProt Q15077); assay: P2Y6R agonist activity, inositol-1-phosphate (IP1) accumulation; format: cell-based; set-up: expressed in transfected cells; host or cells: AD293 cells; conditions: vs. UDP
# From the text: FIG. 3: P2Y6R agonist activity of analogues 9-12 vs. UDP determined by measuring the production of inositol-1-phosphate (IP1);
# [1] = Chemical stability under acidic and basic conditions by 31P-NMR
# From the text: To evaluate the chemical stability of uridine-5′-Pα,α-dithiophosphate analogues, we measured by 31P-NMR the time-dependent percentage of the analogues remaining under basic and acidic conditions, and due to air-oxidation.
# P2Y6R, sequence (Q15077 whole entry): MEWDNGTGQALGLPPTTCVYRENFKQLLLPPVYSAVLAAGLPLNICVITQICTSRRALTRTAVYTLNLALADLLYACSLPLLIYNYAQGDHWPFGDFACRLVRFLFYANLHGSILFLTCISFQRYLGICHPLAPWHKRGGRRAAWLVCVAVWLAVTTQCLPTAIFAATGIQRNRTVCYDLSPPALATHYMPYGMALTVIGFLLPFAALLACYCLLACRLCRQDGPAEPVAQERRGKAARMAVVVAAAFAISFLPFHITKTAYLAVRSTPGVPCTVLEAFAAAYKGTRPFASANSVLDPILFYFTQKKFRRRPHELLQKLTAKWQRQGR
SMILES,inhibition of human NTPDase2 (NTPDase2),inhibition of human NTPDase3 (NTPDase3),inhibition of human NTPDase8 (NTPDase8),P2Y6-R agonist activity (IP1 accumulation) (P2Y6R),"decomposition ([1]; basic, pD 12.1, after 25 days)","decomposition of starting material ([1]; pD 2.1 (pH 1.7), RT, 23 days)","decomposition ([1]; pD 2.1, after 25 days)",inhibition at 100 µM (NTPDase3),"loss of compound ([1]; basic, pD 12.6, after 16 days)","decomposition ([1]; pD 1.8 (pH 1.4), 16 days, RT)"
O=c1ccn([C@@H]2O[C@H](COP(=S)(S)OP(=O)(O)OP(=O)(O)O)[C@@H](O)[C@H]2O)c(=O)[nH]1 (stereo partly drawn) [Analogue 10],no inhibition,no inhibition,no inhibition,limited agonist activities,24%,15%,,,,
O=c1ccn([C@@H]2O[C@H](COP(=S)(S)OP(=O)(O)CP(=O)(O)O)[C@@H](O)[C@H]2O)c(=O)[nH]1 (stereo partly drawn) [Analogue 11],negligible effects,negligible effects,negligible effects,devoid of any P2Y6—R activity,23%,,6%,,,
O=c1ccn([C@@H]2O[C@H](COP(=S)(S)OP(=O)(O)OP(=O)(O)OP(=S)(S)OC[C@H]3O[C@@H](n4ccc(=O)[nH]c4=O)[C@H](O)[C@@H]3O)[C@@H](O)[C@H]2O)c(=O)[nH]1 (stereo partly drawn) [Analogue 12],selective to NPP1,,selective to NPP1,limited agonist activities,,,,24%,13%,6%
